Data from patent EP4748841A1, “BICYCLO[5,6] IMIDAZOLE PYRIMIDONE DERIVATIVE AND PREPARATION METHOD THEREFOR AND USE THEREOF” (Shujing Biopharma Co., Ltd, priority 2023, dated 2025).

Legend:
Format in all cases: in vitro ADME
[1] = Liver microsome stability experiment (SD rat); conditions: for CLint scaled at 1 µM: SD, rat, liver microsomes, pH 7.4, SD rat liver microsomes; for half-life at 1 µM: pH 7.4, SD rat liver microsomes
Procedure: (§1) This experiment aimed to evaluate the phase I metabolic stability of the compounds of the present disclosure in liver microsomes of SD rats, beagle dogs, cynomolgus monkeys, and humans.
(§2) • (1) Buffer preparation: 73.21 g of dipotassium hydrogen phosphate trihydrate and 10.78 g of potassium dihydrogen phosphate were dissolved in 4000 mL of ultrapure water. The pH of the solution was adjusted to within 7.40 ± 0.10 using 10% phosphoric acid or 1 M potassium hydroxide, resulting in a final concentration of 100 mM. • (2) Solution preparation and dilution: Stock solutions of the test compounds at a concentration of 10 mM were prepared in dimethyl sulfoxide (DMSO) and stored at 4 °C, and they were diluted into 100 µM working solutions with pure acetonitrile when used. A stock solution of the control compound testosterone at a concentration of 10 mM was prepared in DMSO and stored at -20 °C, and it was diluted into a 400 µM working solution with pure acetonitrile when used. • (3) Termination solution preparation: The termination solution was an acetonitrile solution containing an internal standard (terfenadine). The prepared termination solution was stored in a refrigerator at 2-8 °C. • (4) Liver microsome solution preparation: Liver microsomes from various species (SD rat, beagle dog, cynomolgus monkey, and human) were diluted into 20× working solutions using 100 mM potassium phosphate buffer. The final concentration of the liver microsomes in the reaction system was 0.5 mg/mL. • (5) Reduced nicotinamide adenine dinucleotide phosphate (NADPH) regeneration system preparation: Appropriate amounts of nicotinamide adenine dinucleotide phosphate (NADP), glucose-6-phosphate (G6P), magnesium chloride (MgCl2), and glucose-6-phosphate dehydrogenase (G6PDH) were weighed to prepare stock solutions at concentrations of 65.33 mM, 330 mM, 300 mM, and 250 Units/mL, respectively. The four stock solutions described above were each added to an appropriate amount of buffer, and the mixture was mixed well by gently inverting up and down. The final concentrations of NADP, G6P, MgCl2, and G6PDH in the NADPH regeneration system were 2.65 mM, 10.2 mM, 6.12 mM, and 2.45 Units/mL, respectively. • (6) Incubation process: The incubation was completed in 96-well plates. Several incubation plates were prepared and named T0, T5, T10, T20, T40, T60, and NCF60, respectively. The first 6 plates corresponded to reaction time points of 0 min, 5 min, 10 min, 20 min, 40 min, and 60 min, respectively. The NCF60 plate was incubated for 60 min with potassium phosphate buffer replacing the NADPH regeneration system solution. Samples under all conditions were prepared in triplicate.
(§3) 2 µL of the test compound or control compound and 100 µL of microsome working solution (containing 1 mg/mL liver microsome protein) were added to each of the T0, T5, T10, T20, T40, T60, and NCF60 plates, and only the microsome working solution was added to the Blank 60 plate. The plates described above were then pre-incubated in a 37 °C water bath for about 10 min.
(§4) After the pre-incubation was completed, 98 µL of the NADPH regeneration system working solution was added to each sample well except for the NCF60 plate and the T0 plate to initiate the reaction, and 98 µL of potassium phosphate buffer was added to each well of the NCF60 plate. Therefore, for the sample wells containing the test sample or control substance working solution, the final concentrations of TC and testosterone in the reaction were 1 µM and 4 µM, respectively, the concentration of liver microsomes was 0.5 mg/mL, and the final concentrations of DMSO and acetonitrile in the reaction system were 0.01% (v/v) and 0.99% (v/v), respectively.
(§5) After incubation for an appropriate time (e.g., 5 min, 10 min, 20 min, 40 min, and 60 min), 600 µL of a termination solution (an acetonitrile solution containing 100 ng/mL […]) was added to each test compound sample well and control compound sample well to terminate the reaction. […]

[2] = Liver microsome stability experiment (beagle dog); conditions: for CLint scaled at 1 µM: beagle, dog, liver microsomes, pH 7.4, Beagle dog liver microsomes; for half-life at 1 µM: pH 7.4, Beagle dog liver microsomes
Procedure: as §1, §2, §3, §4, §5

[3] = Liver microsome stability experiment (cynomolgus monkey); conditions: pH 7.4, Cynomolgus monkey liver microsomes, 0.5 mg/mL; for CLint scaled at 1 µM: cynomolgus monkey, liver microsomes
Procedure: as §1, §2, §3, §4, §5

[4] = Liver microsome stability experiment (human); conditions: for CLint scaled at 1 µM: human, liver microsomes, pH 7.4, Human liver microsomes; for half-life at 1 µM: pH 7.4, Human liver microsomes
Procedure: as §1, §2, §3, §4, §5

[5] = 0.5 mg/mL, 1 µM, read-out: CL(liver)
[6] = 0.5 mg/mL, 1 µM, read-out: CLint(liver)
[7] = read-out: Clearance rate classification

## O=c1nc(OCc2cc(F)c(Oc3ccnc(C(F)(F)F)c3)c(F)c2)cc2n1C[C@H]1CCCN21 [Comparative Example 1, reference compound]
[1]; [5]
  CLint scaled at 1 µM: 1.13 L/h/kg
[1]; [6]
  CLint scaled at 1 µM: 1.72 L/h/kg
[1]; [7]
  CLint scaled at 1 µM: 1.42 to 7.73 L/h/kg
[1]; 0.5 mg/mL, 1 µM
  half-life at 1 µM: 1.45 h
[2]; [5]
  CLint scaled at 1 µM: 0.63 L/h/kg
[2]; [6]
  CLint scaled at 1 µM: 0.948 L/h/kg
[2]; [7]
  CLint scaled at 1 µM: 0.792 to 4.33 L/h/kg
[2]; 0.5 mg/mL, 1 µM
  half-life at 1 µM: 2.1 h
[3]; read-out: CL(liver)
  CLint scaled at 1 µM: 1.7 L/h/kg
[3]; read-out: CLint(liver)
  CLint scaled at 1 µM: 4.86 L/h/kg
[3]
  half-life at 1 µM: 0.385 h
[4]; [5]
  CLint scaled at 1 µM: 0.414 L/h/kg
[4]; [6]
  CLint scaled at 1 µM: 0.618 L/h/kg
[4]; [7]
  CLint scaled at 1 µM: 0.534 to 2.9 L/h/kg
[4]; 0.5 mg/mL, 1 µM
  half-life at 1 µM: 2.01 h

## O=c1nc(OCc2cc(F)c(Oc3ccnc(C(F)(F)F)c3)c(F)c2)cc2n1C[C@H]1CCN21 [Example 34-R]
[1]; [5]
  CLint scaled at 1 µM: < 0.648 L/h/kg
[1]; [6]
  CLint scaled at 1 µM: < 0.804 L/h/kg
[1]; [7]
  CLint scaled at 1 µM: ≤ 1.42 L/h/kg
[1]; 0.5 mg/mL, 1 µM
  half-life at 1 µM: > 3.11 h
[2]; [5]
  CLint scaled at 1 µM: < 0.48 L/h/kg
[2]; [6]
  CLint scaled at 1 µM: < 0.642 L/h/kg
[2]; [7]
  CLint scaled at 1 µM: ≤ 0.792 L/h/kg
[2]; 0.5 mg/mL, 1 µM
  half-life at 1 µM: > 3.11 h
[3]; read-out: CL(liver)
  CLint scaled at 1 µM: < 0.492 L/h/kg
[3]; read-out: CLint(liver)
  CLint scaled at 1 µM: < 0.6 L/h/kg
[3]
  half-life at 1 µM: > 3.11 h
[4]; [5]
  CLint scaled at 1 µM: < 0.304 L/h/kg
[4]; [6]
  CLint scaled at 1 µM: < 0.401 L/h/kg
[4]; [7]
  CLint scaled at 1 µM: ≤ 0.534 L/h/kg
[4]; 0.5 mg/mL, 1 µM
  half-life at 1 µM: > 3.11 h
